Where two headings read alike, the source gives them in different places.
Key:
MDA-MB-468 cells [1] = assay: Western blots of MDA-MB-468 cells treated with 1 and I-2 (Bcl-2 family proteins, Caspase 3 and PARP cleavage); format: cell-based, human
Mcl-1/Bim = Mcl-1/Bim (Homo sapiens, UniProt Q07820); assay: Mcl-1/Bim ELISA (GST-Mcl-1 binding to biotinylated Bim BH3 peptide)
How it was run: (§1)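 Competition ELISA: streptavidin-captured biotin-Bim BH3 (40 nM) exposed 2 h to GST-Mcl-1 or GST-Bcl-xL (10 nM) preincubated 15 min with compound in PBS. Readout via HRP-anti-GST and TMB, A450.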

MDA-MB-468 cells [2] = assay: Soft agar assay (anchorage-independent growth); format: cell-based, human; conditions: 21 days, compared with 1
[3] = tested on: A-549 human lung cancer cells; assay: MTT assay (anchorage-dependent proliferation); format: cell-based; conditions: 48 hours, compared with 1
[4] = tested on: Bim/Mcl-1 and Bim/Bcl-xL in MDA-MB-468 cancer cells; assay: Co-immunoprecipitation and densitometry of Bim/Mcl-1 and Bim/Bcl-xL in treated cells; format: cell-based, human; conditions: compared with 1
[5] = Stability in 1 M NaOH at room temperature, HPLC analysis; conditions: after 48 hours
[6] = tested on: cultured human cancer cells; assay: Induction of apoptosis in cultured human cancer cells; format: cell-based; conditions: intact cell studies
Bcl-xL/Bim = Bcl-xL/Bim (Homo sapiens, UniProt Q07817); assay: Bcl-xL/Bim ELISA (GST-Bcl-xL binding to biotinylated Bim BH3 peptide)
How it was run: as §1

MDA-MB-468 cells [7] = assay: MTT assay (anchorage-dependent proliferation); format: cell-based, human; conditions: 48 hours, compared with 1
[8] = tested on: A-549 human lung cancer cells; assay: Soft agar assay (anchorage-independent growth); format: cell-based; conditions: 21 days, compared with 1
A-549 xenografts = A-549 xenografts in nude mice; format: in vivo; conditions: 4 mpk/day for 14 days

Sequence of Mcl-1/Bim (Q07820 whole entry): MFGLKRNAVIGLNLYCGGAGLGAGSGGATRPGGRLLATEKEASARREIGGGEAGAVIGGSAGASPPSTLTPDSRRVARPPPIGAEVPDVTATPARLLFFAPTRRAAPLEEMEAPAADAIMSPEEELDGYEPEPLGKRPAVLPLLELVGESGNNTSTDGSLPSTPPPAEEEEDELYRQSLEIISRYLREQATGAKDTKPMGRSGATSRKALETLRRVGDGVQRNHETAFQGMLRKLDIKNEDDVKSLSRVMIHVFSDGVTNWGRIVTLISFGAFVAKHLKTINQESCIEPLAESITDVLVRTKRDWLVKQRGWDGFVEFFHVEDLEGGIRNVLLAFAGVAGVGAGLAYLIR
Sequence of Bcl-xL/Bim (Q07817 whole entry): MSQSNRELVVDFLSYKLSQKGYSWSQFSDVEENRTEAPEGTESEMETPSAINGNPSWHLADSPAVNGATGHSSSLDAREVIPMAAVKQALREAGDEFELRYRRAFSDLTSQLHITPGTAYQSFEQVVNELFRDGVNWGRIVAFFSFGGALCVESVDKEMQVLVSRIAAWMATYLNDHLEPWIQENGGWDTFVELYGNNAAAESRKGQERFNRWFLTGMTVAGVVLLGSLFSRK

Q: Which results are given for `C#Cc1ccc(C(=O)c2[nH]c(Cl)c(Cl)c2-n2c(C(=O)c3ccc(C#C)cc3O)cc(Cl)c2Cl)c(O)c1` [Compound 1-3, (4,4′,5,5′-Tetrachloro-1′H-1,3′-bipyrrole-2,2′-diyl)bis((4-ethynyl-2-hydroxyphenyl)methanone)]?
A: effect on Bcl-2 and Bax levels (MDA-MB-468 cells [1]): little effects; effect on Bim level (MDA-MB-468 cells [1]): slightly decreased; decreasing levels of Mcl-1 and Bcl-xL and increasing levels of Bak and Bad (MDA-MB-468 cells [1]; compared with 1): more potent than 1; inducing apoptosis (Caspase 3 and PARP cleavage) (MDA-MB-468 cells [1]; compared with 1): more potent than 1; activity against Mcl-1/Bim in words (Mcl-1/Bim): more potent than 1; IC50 (Mcl-1/Bim; Table 2-B, n ≥ 3, read-out: Mcl-1/Bim IC50 (average ± SEM)): 3.9 ± 0.2 µM; IC50 (Mcl-1/Bim; Table 3-A structure I, Mcl-1 at 10 nM, n ≥ 3, read-out: Mcl-1-Bim IC50 (average ± SEM)): 3.9 ± 0.2 µM; selectivity profile Mcl-1 vs Bcl-xL in words (Mcl-1/Bim; from Mcl-1/Bim and Bcl-xL/Bim ELISA): dual Mcl-1 and Bcl-XL antagonists; IC50 (Mcl-1/Bim; read-out: IC50 to inhibit the binding of Mcl-1 to Bim): 3.7 µM; inhibiting anchorage-independent proliferation (soft agar) (MDA-MB-468 cells [2]): more potent than 1; inhibiting anchorage-dependent proliferation (MTT) [3]: more potent than 1; inhibition of binding of Mcl-1 and Bcl-xL to Bim in cells [4]: more potent than 1; remained intact [5]: 81%; induction of apoptosis [6]: induced apoptosis; activity against Bcl-xL/Bim in words (Bcl-xL/Bim): more potent than 1; IC50 (Bcl-xL/Bim; Table 2-B, n ≥ 3 unless specified, read-out: Bcl-xL/Bim IC50 (average ± SEM)): 5.6 ± 0.5 µM; IC50 (Bcl-xL/Bim; Table 3-A structure I, Bcl-xL at 10 nM, n ≥ 3, read-out: Bcl-xL-Bim IC50 (average ± SEM)): 5.6 ± 0.5 µM; inhibiting anchorage-dependent proliferation (MTT) (MDA-MB-468 cells [7]): more potent than 1; inhibiting anchorage-independent proliferation (soft agar) [8]: more potent than 1; effect on the body weights of the mice (A-549 xenografts): little effect; increase of tumor volumes from day 1 to day 14 (A-549 xenografts; vehicle-treated mice 160±10%): 45±30%

From US10358454B2, “Marinopyrrole derivatives and methods of making and using same” (H. LEE MOFFITT CANCER CENTER AND RESEARCH INSTITUTE, INC., priority 2014, dated 2019)
